Counter-ions that a name gives are not always drawn. Like-named read-outs stand apart in the source and are kept apart here.
Columns and labels:
[1] = biological target: porcine pancreatic elastase (Sus scrofa, UniProt P00772); experiment: In vitro inhibition of elastase enzymatic activity (hydrolysis of Suc-Ala-Ala-Pro-LeupNA), Table I; assay type: biochemical; conditions: 25° C., pH 8.8, concentration in the final solution
Description: (§1) a) In vitro inhibition of elastase enzymatic activity.
(§2) The variation of the rate of hydrolysis of a substrate specific of elastases was studied in the presence and absence of the test compound according to a conventional technique. The experiments were performed with porcine pancreatic elastase, and human neutrophil elastase extracted from purulent sputum; the enzyme substrate was a chromogenic tetrapeptide, N-succinyl-L-alanyl-L-alanyl-[…]-L-leucyl-p-nitroanilide, designated Suc-Ala-Ala-Pro-LeupNA, which, on hydrolysis, liberates p-nitroaniline, the appearance of which in the medium is followed in a spectrophotometer; alpha1 -antitrypsin was used as a standard inhibitor. The experiments were performed at 25° C., the spectrophotometric measurement being made at 410 nm.
(§3) The solution of substrate was prepared by dissolving 5.8 mg of anilide in 20 ml of buffer solution containing 24.22 g/l of Tris-HCl with 754 mg/l of CaCl2, adjusted to pH 8.8.
(§4) The solution of enzyme in the same buffer was at a concentration of 0.1 g/l, while the solutions of test compound in the same buffer were at concentrations of between 0.1 mM and 0.01 μM.
(§5) 200 μl of solution of substrate, 75 μl of buffer solution and 200 μl of solution of the test compound, or of buffer solution in the case of the controls, were mixed in tubes. After 20 minutes at 25° C., the tube was placed in the recording spectrophotometer and 25 μl of the solution of enzyme were added to this medium; the change in the optical density ΔOD was recorded for 30 seconds.
(§6) The percentage inhibition is defined as the difference between the change in OD for the control sample and that for the test sample, divided by the change for the control and multiplied by 100. [formula]

human leucocyte elastase = biological target: T1, human leucocyte elastase (Homo sapiens, UniProt P08246); experiment: In vitro inhibition of elastase enzymatic activity (hydrolysis of Suc-Ala-Ala-Pro-LeupNA), Table II; assay type: biochemical; conditions: human leucocyte (neutrophil) elastase from purulent sputum; 25° C.; pH 8.8; concentration in the final solution
T1 construct: human neutrophil elastase extracted from purulent sputum; from tissue; host or cells: purulent sputum
T1 sequence (P08246 30-247 limits assumed): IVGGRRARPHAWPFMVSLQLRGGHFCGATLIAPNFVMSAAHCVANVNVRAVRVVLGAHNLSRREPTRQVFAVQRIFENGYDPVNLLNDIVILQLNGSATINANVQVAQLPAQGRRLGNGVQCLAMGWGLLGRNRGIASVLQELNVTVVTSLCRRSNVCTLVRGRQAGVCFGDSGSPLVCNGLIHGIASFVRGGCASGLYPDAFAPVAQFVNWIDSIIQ
Description: as §1, §2, §3, §4, §5, §6

platelet aggregation = experiment: Platelet aggregation-inhibitory activity in rats (blood taken from treated animals, ADP or collagen added); assay type: in vivo; conditions: Rattus norvegicus, po, orally
Excerpt: b) Platelet aggregation-inhibitory activity in rats.

[2] = ADP, read-out: percentage inhibition of aggregation, ADP
[3] = collagen, read-out: percentage inhibition of aggregation, collagen

Sequence of porcine pancreatic elastase (P00772 27-266): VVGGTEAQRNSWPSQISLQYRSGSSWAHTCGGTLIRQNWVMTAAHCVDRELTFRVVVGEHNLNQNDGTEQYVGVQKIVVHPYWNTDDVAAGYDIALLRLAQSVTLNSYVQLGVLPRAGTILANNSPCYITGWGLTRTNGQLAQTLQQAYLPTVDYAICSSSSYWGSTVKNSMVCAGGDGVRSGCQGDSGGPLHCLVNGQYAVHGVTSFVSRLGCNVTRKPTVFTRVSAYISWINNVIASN

Structure (SMILES) | IC50 [1] [µM] | IC50 (human leucocyte elastase) [µM] | inhibition at 100 mg/kg (platelet aggregation; [2]) [%] | inhibition at 100 mg/kg (platelet aggregation; [3]) [%]
CC(C)(C)C(=O)Oc1cc2c(s1)CCNC2 [SR 26842, 4,5,6,7,-tetrahydrothieno[3,2-c]pyrid-2-yl t-butyrate] | 10 | 3.2 | – | –
CCCC(=O)Oc1cc2c(s1)CCN(Cc1ccccc1Cl)C2 [PCR 4094] | 2 | 3.5 | – | –
CCOC(=O)Oc1cc2c(s1)CC[N+]([O-])(Cc1ccccc1Cl)C2 (stereo not shown) [SR 26894] | 24 | – | – | –
COC(=O)C(c1ccccc1Cl)N1CCc2sc(OC(=O)C(C)C)cc2C1 (stereo not shown) [SR 26886] | 2.9 | 30 | – | –
CCCC(=O)Oc1cc2c(s1)CCN(Cc1ccc(Cl)cc1)C2 [SR 26767] | 4.8 | 3.4 | – | –
CC(C)C(=O)Oc1cc2c(s1)CN(Cc1ccccc1Cl)CC2 [SR 26862] | 4 | – | – | –
CC(C)(C)C(=O)Oc1cc2c(o1)CCN(Cc1ccccc1Cl)C2 [SR 26938, 5-(2-chlorobenzyl)-4,5,6,7-tetrahydrofuro-[3,2-c]pyrid-2yl t-butyrate] | 3.6 | 3.1 | – | –
CC(=O)Oc1cc2c(s1)CC[N+]([O-])(C(C(=O)N1CCCC1)c1ccccc1Cl)C2 (stereo not shown) [SR 26914] | 25 | – | – | –
CC(=O)Oc1cc2c(s1)CCN(C(C(=O)N1CCCC1)c1ccccc1Cl)C2 (stereo not shown) [SR 26913] | 32 | – | – | –
CC(C)(C)C(=O)Oc1cc2c(o1)CC[N+]([O-])(Cc1ccccc1Cl)C2 (stereo not shown) [SR 26993] | 1.7 | 3.1 | – | –
CC(C)C(=O)Oc1cc2c(s1)CCNC2 [SR 26861, 4,5,6,7-Tetrahydrothieno[3,2-c]pyrid-2-yl isobutyrate, hydrochloride] | 6.4 | 2.6 | – | –
CC(C)C(=O)Oc1cc2c(s1)CCN(Cc1ccc(Cl)cc1)C2 [SR 26769] | 7 | 30 | – | –
CCCC(=O)Oc1cc2c(s1)CC[N+]([O-])(Cc1ccccc1Cl)C2 (stereo not shown) [SR 26832] | 7 | 5.6 | – | –
CC(C)C(=O)Oc1cc2c(s1)CCN(Cc1ccccc1Cl)C2 [SR 26772] | 5.8 | 2.6 | – | –
CCCN1CCc2sc(OC(=O)C(C)(C)C)cc2C1 [SR 27318, 5-propyl-4,5,6,7-tetrahyirothieno[3,2-c]pyrid-2-yl t-butyrate] | 10 | 3 | – | –
CC(C)(C)C(=O)Oc1cc2c(s1)CCN(Cc1ccccc1Cl)C2 [SR 26766, 5-(2-chlorobenzyl)-4,5,6,7-tetrahydrothieno[3,2-c]pyridyl-2 t-butyrate] | – | – | 61 | 62

Now from value to compound, other results behind:

IC50 [1] [µM] | IC50 (human leucocyte elastase) [µM] | Structure (SMILES) | inhibition at 100 mg/kg (platelet aggregation; [2]) [%] | inhibition at 100 mg/kg (platelet aggregation; [3]) [%]
1.6 | – | CC(C)(C)C(=O)Oc1cc2c(s1)CC[N+](C)(Cc1ccccc1Cl)C2 (stereo not shown) [SR 27168] | – | –
2.2 | 2.2 | CC(C)(C)C(=O)Oc1cc2c(s1)C[N+]([O-])(Cc1ccccc1Cl)CC2 (stereo not shown) [SR 26998] | – | –
4.5 | 3.2 | COc1ccc(CN2CCc3sc(OC(=O)C(C)(C)C)cc3C2)cc1 [SR 27261] | – | –
10 | – | CC(C)(C)C(=O)Oc1cc2c(s1)CC[N+](C)([O-])C2 (stereo not shown) [SR 27165] | – | –
4.5 | 3.4 | CC(c1ccccc1)N1CCc2sc(OC(=O)C(C)(C)C)cc2C1 (racemic) [SR 27319] | – | –
15 | 0.7 | CCC[N+]1([O-])CCc2sc(OC(=O)C(C)(C)C)cc2C1 (stereo not shown) [SR 27325] | – | –
2.2 | 2.3 | CC(C)(C)C(=O)Oc1cc2c(s1)CC[N+]([O-])(Cc1ccccc1)C2 (stereo not shown) [SR 26986] | – | –
1 | 2.6 | COc1ccc(C[N+]2([O-])CCc3sc(OC(=O)C(C)(C)C)cc3C2)cc1 (stereo not shown) [SR 27262] | – | –
8 | 24 | CC(C)C(=O)Oc1cc2c(s1)CCN(Cc1ccccc1)C2 [SR 26829] | – | –
3.6 | 2.6 | CN1CCc2sc(OC(=O)C(C)(C)C)cc2C1 [SR 26984, 5-methyl-4,5,6,7-tetrahydrothieno[3,2-c]pyrid-2-yl t-butyrate] | – | –
10 | 2.6 | CC(c1ccccc1)[N+]1([O-])CCc2sc(OC(=O)C(C)(C)C)cc2C1 (stereo not shown) [SR 27354] | – | –
2.5 | 1.8 | CC(C)(C)C(=O)Oc1cc2c(s1)CC[N+]([O-])(Cc1ccc(Cl)cc1)C2 (stereo not shown) [SR 26977] | – | –
9 | 3.4 | CC(C)(C)C(=O)Oc1cc2c(s1)CCN(Cc1ccccc1)C2 [SR 26827] | 48 | 21
6 | 3.6 | CC(C)C(=O)Oc1cc2c(s1)CC[N+]([O-])(Cc1ccccc1Cl)C2 (stereo not shown) [SR 26833] | – | –
5 | 2.5 | CC(C)(C)C(=O)Oc1cc2c(s1)CC[N+]([O-])(Cc1ccccc1Cl)C2 (stereo not shown) [SR 26831] | – | –
